Measurements: patent US20030027765A1, “Therapeutic peptides having a motif that binds specifically to non-acetylated H3 and H4 histones for cancer therapy” (priority 2000, published 2003)
Entries after “also recorded” stand apart in the source; their conditions may differ.

Columns and labels:
[1] = target: T1, histone H4 (Mus musculus, UniProt P62806); assay: histone H4 acetylation in Na-butyrate treated C3H cells (immunoblot); type: cell-based, murine; conditions: absence of lunasin
T1 construct: endogenous in cells; host or cells: C3H 10T1/2 mouse embryo fibroblasts
Source text: (§1) Deacetylated histones are substrates for histone acetylation and for chromatin remodelling which has been associated with eukaryotic transcriptional regulatory mechanisms (K Struhl, Genes Dev., vol. 12, 599,1998; M. Grunstein, Nature, vol. 389,349, 1997).

[2] = tested on: histone H3; assay: histone H3 acetylation in Na-butyrate treated C3H cells (immunoblot); type: cell-based, murine
Source text: as §1

[3] = target: T2, histone H4 (Homo sapiens, UniProt P62805); assay: histone H4 acetylation in Na-butyrate treated MCF-7 cells (immunoblot); type: cell-based; conditions: absence of lunasin
T2 construct: endogenous in cells; host or cells: MCF-7
Source text: as §1

[4] = tested on: histone H3; assay: histone H3 acetylation in Na-butyrate treated MCF-7 cells (immunoblot); type: cell-based, human
Source text: as §1

[5] = target: histone H3 in MCF-7 cells (human)
[6] = target: deacetylated H4 N-terminal tail peptide; assay: in vitro immuno-binding assay, increasing dose of deacetylated H4 peptide (FIG. 10)
[7] = tested on: mice embryo fibroblast cells (C3H 10T½); assay: cell adhesion assay with synthetic lunasin peptides; type: cell-based; conditions: C3H 10T½ cells, FIG. 2
Source text: (§2) Lunasin contains the cell adhesion motif RGD (arg-gly-asp). […] However, at this stage of mitosis, kinetochore assembly and spindle fiber attachment to centromeres had already transpired.

[8] = target: T3, deacetylated H4 N-terminal tail (Homo sapiens, UniProt P62805); assay: in vitro immuno-binding assay, deacetylated H4; conditions: for binding to deacetylated H4 N-terminus: FIG. 9
T3 construct: using acetylated and deacetylated forms of the H4 N-terminal tail

[9] = target: T4, tetra-acetylated H4 (Homo sapiens, UniProt P62805); assay: in vitro immuno-binding assay, tetra-acetylated H4; conditions: FIG. 9
T4 construct: using acetylated and deacetylated forms of the H4 N-terminal tail

[10] = tested on: murine embryo fibroblast cells; assay: exogenous application of lunasin to growth media, immunostaining; type: cell-based
Source text: as §2

[11] = tested on: C3H cells; assay: lunasin treatment followed by E1A oncogene transfection (apoptosis); type: cell-based, murine; conditions: 20 h after transfection
Source text: As a negative control, E1A with deleted conserved region 1 (E1AΔCR1) that abolishes the RB binding domain was likewise used in the transfection experiments (D. Trouche, T. Kouzidares, Proc. Natl. Acad. Sci., USA, vol. 93, 1439 (1996)).

[12] = tested on: C3H 10 T½ cells; assay: cell transformation assay (carcinogen-induced foci formation); type: cell-based, murine; conditions: FIG. 6, FIG. 12
[13] = treated with lunasin for 24 h, then E1Awt

Molecule: CCCC(=O)[O-].[Na+] [Na-butyrate, reference compound]
- increase of histone H4 acetylation [1]: 200 fold
- increase of H3 acetylation ([2]; C3H cells, Na-butyrate treatment): 100 fold
- increase of histone H4 acetylation [3]: 200 fold
- increase of H3 acetylation ([4]; MCF-7 cells, Na-butyrate treatment): around 400 fold

Molecule: Lunasin peptide
- acetylated H3 on immunoblots of acid-extracted proteins, Na-butyrate treated MCF-7 cells [5]: 4 fold
- binding against trLunasin-del [6]: 3 x

Molecule: Lunasin-GRG: lunasin with deleted RGD motif (SKWQHQQDSCRKQLQGVNLTPCEKHIMEKIQGDDDDDDDD)
- cell adhesion to C3H cells [7]: prevented cell adhesion
- binding to deacetylated H4 N-terminus [8]: high affinity
- binding to tetra-acetylated H4 [9]: not to the tetra-acetylated H4

Molecule: NLS-trLunasin: truncated lunasin peptide with the helix substituted by a nuclear localization sequence (NLS) (LEEKQKKKMEKEQGRGDDDDDDDDD; Glycine max; NLS-trLunasin)
- binding to deacetylated H4 N-terminus [8]: loss of binding to deacetylated H4

Molecule: Ser-Lys-Trp-Gln-His-Gln-Gln-Asp-Ser-Cys-Arg-Lys-Gln-Leu-Gln-Gly-Val-Asn-Leu-Thr-Pro-Cys-Glu-Lys-His-Ile-Met-Glu-Lys-Ile-Gln-Gly-Arg-Gly-Asp -Asp-Asp-Asp-Asp-Asp-Asp-Asp-Asp [Lunasin]
- cell adhesion to C3H cells [7]: adhered to C3H cells in a dose-dependent manner
- internalization into cells ([10]; applied exogenously to the growth media, FIG. 3): became internalized
- chromosomal binding site of internalized peptide ([10]; applied exogenously, metaphase): preferentially binding to the telomeres of chromosomes during metaphase
- effect on cell division and proliferation ([10]; exogenous application): did not affect cell division and proliferation
- effect on kinetochore assembly ([10]; internalized lunasin): did not affect kinetochore assembly
- cell state after E1A-ΔCR1 transfection ([11]; presence of lunasin): normally dividing cells
- Annexin V staining of non-adherent cells (apoptosis) [11, 13]: positive fluorescent staining for Annexin V-HITC
- cell state after E1Awt transfection [11, 13]: preponderance of non-adherent cells
- Na-butyrate-induced increase in H3 acetylation upon addition of lunasin ([2]; C3H cells): no observed increase
- acetylated H3 on immunoblots of acid-extracted proteins ([2]; Na-butyrate treated C3H cells pretreated with 1 μM lunasin, FIG. 13): significant reduction
- reduction of H3 acetylation ([4]; MCF-7 cells, lunasin added prior to Na-butyrate treatment): 4 fold
- acetylated H3 on immunoblots of acid-extracted proteins ([4]; Na-butyrate treated MCF-7 cells pretreated with 1 μM lunasin, FIG. 13): significant reduction

Molecule: trLunasin-del: 10 amino acid peptide fragment spanning a helical domain upstream of the poly-aspartyl carboxyl end of lunasin (EKHIMEKIQG; Glycine max; trLunasin-del)
- binding affinity to deacetylated H4 relative to NLS-trLunasin ([8]; FIG. 10): significantly higher affinity

Molecule: trLunasin: truncated lunasin that contains only the reactive carboxyl end of the peptide (EKHIMEKIQGRGDDDDDDDDD; Glycine max; trLunasin)
- anti-transformation property / efficacy in preventing foci transformation [12]: reduced efficacy
- binding affinity to deacetylated H4 relative to trLunasin-del [8]: not significantly different
- binding to deacetylated H4 N-terminus [8]: significant reduction in deacetylated H4 binding; also recorded: lower binding affinity
